Experimental data reported in US7189351B2, “D-tagatose as an anti-biofilm agent” (priority 2001, dated 2007).

Columns and labels:
[1] = tested on: Actinomyces naeslundii PK29/Streptococcus mitis J22; experiment: reversal of coaggregation, visual score; type: cell-based; conditions: pair PK29/J22; sugar 750 mM; water score 4; scale 0 no visible to 4 maximum coaggregation
Experimental: (§1) Fifteen oral isolates, including both early colonizers (Streptococcus and Actinomyces) and late colonizers (Fusobacterium, Porphyromonas, Prevotella, Veillonella, Capnocytophaga, and Actinobacillus), were tested for their ability to coaggregate with each other, followed by testing for the reversal of coaggregation by the addition of D-tagatose. Bacterial strains used were of human gingival crevice origin. The coaggregation was examined visually by a scoring system ranging from 0 for no visible coaggregation to 4 for maximum coaggregation [Cisar J. O., Kolenbrander P. E., and McIntire F. C., “Specificity of coaggregation reactions between human oral streptococci and strains of Actinomyces viscosus or Actinomyces naeslundii”, Infect. Immun., 24:742–752. 1979]. D-Tagatose, at a concentration of less than 750 mM, completely reversed the coaggregation of 17 (60%) of 28 strong coaggregating pairs (with a coaggregation score of 2 or higher) tested. […] These D-tagatose sensitive coaggregations were D-galactose reversible as well.
(§2) Pairs of various species of oral bacteria were tested for coaggregation, and for reversal of coaggregation when D-tagatose or D-galactose was administered.

[2] = tested on: Actinomyces naeslundii PK947/Streptococcus oralis SO34; experiment: reversal of coaggregation, visual score; type: cell-based; conditions: pair PK947/SO34; sugar 200 mM; water score 3; scale 0 no visible to 4 maximum coaggregation
Experimental: as §1, §2

[3] = tested on: Actinomyces naeslundii PK29/Streptococcus morbillorum PK509; experiment: reversal of coaggregation, visual score; type: cell-based; conditions: pair PK29/PK509; sugar 200 mM; water score 2; scale 0 no visible to 4 maximum coaggregation
Experimental: as §1, §2

[4] = tested on: Actinomyces naeslundii PK947/Streptococcus oralis C104; experiment: reversal of coaggregation, visual score; type: cell-based; conditions: pair PK947/C104; sugar 200 mM; water score 2; scale 0 no visible to 4 maximum coaggregation
Experimental: as §1, §2

[5] = tested on: Actinomyces naeslundii PK947/Streptococcus mitis J22; experiment: reversal of coaggregation, visual score; type: cell-based; conditions: pair PK947/J22; sugar 200 mM; water score 2; scale 0 no visible to 4 maximum coaggregation
Experimental: as §1, §2

[6] = tested on: Prevotella loescheii PK1295/Streptococcus oralis SO34; experiment: reversal of coaggregation, visual score; type: cell-based; conditions: pair PK1295/SO34; sugar 750 mM; water score 4; scale 0 no visible to 4 maximum coaggregation
Experimental: as §1, §2

[7] = tested on: Prevotella loescheii PK1295/Streptococcus oralis C104; experiment: reversal of coaggregation, visual score; type: cell-based; conditions: pair PK1295/C104; sugar 750 mM; water score 4; scale 0 no visible to 4 maximum coaggregation
Experimental: as §1, §2

[8] = tested on: Fusobacterium nucleatum PK1594/Porphyromonas gingivalis PK1924; experiment: reversal of coaggregation, visual score; type: cell-based; conditions: pair PK1594/PK1924; sugar 400 mM; water score 4; scale 0 no visible to 4 maximum coaggregation
Experimental: as §1, §2

[9] = tested on: Streptococcus morbillorum PK509/Veillonella atypica PK1910; experiment: reversal of coaggregation, visual score; type: cell-based; conditions: pair PK509/PK1910; sugar 400 mM; water score 2; scale 0 no visible to 4 maximum coaggregation
Experimental: as §1, §2

[10] = tested on: Streptococcus morbillorum PK509/Streptococcus oralis C104; experiment: reversal of coaggregation, visual score; type: cell-based; conditions: pair PK509/C104; sugar 750 mM; water score 3; scale 0 no visible to 4 maximum coaggregation
Experimental: as §1, §2

[11] = tested on: Fusobacterium nucleatum PK1594/Actinobacillus actinomycetemcomitans JP2; experiment: reversal of coaggregation, visual score; type: cell-based; conditions: pair PK1594/JP2; sugar 600 mM; water score 3; scale 0 no visible to 4 maximum coaggregation
Experimental: as §1, §2

[12] = tested on: Veillonella atypica PK1910/Streptococcus oralis C104; experiment: reversal of coaggregation, visual score; type: cell-based; conditions: pair PK1910/C104; sugar 200 mM; water score 3; scale 0 no visible to 4 maximum coaggregation
Experimental: as §1, §2

[13] = tested on: Streptococcus morbillorum PK509/Streptococcus oralis SO34; experiment: reversal of coaggregation, visual score; type: cell-based; conditions: pair PK509/SO34; sugar 400 mM; water score 2; scale 0 no visible to 4 maximum coaggregation
Experimental: as §1, §2

[14] = tested on: Actinomyces naeslundii PK29/Streptococcus oralis C104; experiment: reversal of coaggregation, visual score; type: cell-based; conditions: pair PK29/C104; sugar 750 mM; water score 4; scale 0 no visible to 4 maximum coaggregation
Experimental: as §1, §2

[15] = tested on: Veillonella atypica PK1910/Streptococcus oralis SO34; experiment: reversal of coaggregation, visual score; type: cell-based; conditions: pair PK1910/SO34; sugar 200 mM; water score 3; scale 0 no visible to 4 maximum coaggregation
Experimental: as §1, §2

[16] = tested on: Streptococcus morbillorum PK509/Prevotella loescheii PK1295; experiment: reversal of coaggregation, visual score; type: cell-based; conditions: pair PK509/PK1295; sugar 600 mM; water score 2; scale 0 no visible to 4 maximum coaggregation
Experimental: as §1, §2

[17] = tested on: Prevotella loescheii PK1295/Streptococcus mitis J22; experiment: reversal of coaggregation, visual score; type: cell-based; conditions: pair PK1295/J22; sugar 750 mM; water score 4; scale 0 no visible to 4 maximum coaggregation
Experimental: as §1, §2

[18] = tested on: Fusobacterium nucleatum PK1594/Veillonella atypica PK1910; experiment: reversal of coaggregation, visual score; type: cell-based; conditions: pair PK1594/PK1910; sugar 200 mM; water score 3; scale 0 no visible to 4 maximum coaggregation
Experimental: as §1, §2

[19] = tested on: Actinomyces naeslundii PK29/Streptococcus oralis SO34; experiment: reversal of coaggregation, visual score; type: cell-based; conditions: pair PK29/SO34; sugar 750 mM; water score 4; scale 0 no visible to 4 maximum coaggregation
Experimental: as §1, §2

[20] = tested on: F. nucleatum PK1594 and P. gingivalis PK1924; experiment: phase-contrast photomicrographs of coaggregation; type: cell-based, Fusobacterium nucleatum; Porphyromonas gingivalis; conditions: 400 mM final concentration
[21] = tested on: coaggregating pairs of oral isolates (early and late colonizers); experiment: reversal of coaggregation among fifteen oral isolates (overall); type: cell-based, bacterial strains of human gingival crevice origin
Experimental: as §1, §2

Q: With `OC[C@@H](O)[C@@H](O)[C@H](O)[C@@H](O)CO` [D-Sorbitol] as the molecule, how does the coaggregation score [1] read?
A: 4

Q: And the coaggregation score [2]?
A: 2

Q: And the coaggregation score [3]?
A: 2

Q: What about the coaggregation score [4] of the same molecule?
A: 1

Q: What about the coaggregation score [5] of the same molecule?
A: 2

Q: What about the coaggregation score [6] of the same molecule?
A: 1

Q: And the coaggregation score [7]?
A: 2

Q: What about the coaggregation score [8] of the same molecule?
A: 3

Q: And the coaggregation score [9]?
A: 0

Q: And the coaggregation score [10]?
A: 1

Q: What about the coaggregation score [11] of the same molecule?
A: 2

Q: And the coaggregation score [12]?
A: 1

Q: What about the coaggregation score [13] of the same molecule?
A: 1

Q: And the coaggregation score [14]?
A: 4

Q: And the coaggregation score [15]?
A: 1

Q: And the coaggregation score [16]?
A: 0

Q: What about the coaggregation score [17] of the same molecule?
A: 2

Q: And the coaggregation score [18]?
A: 1

Q: What about the coaggregation score [19] of the same molecule?
A: 4

Q: What about the “dissociation of coaggregate clumps” value [20] of the same molecule?
A: did not dissociate the clumps

Q: And the “plaque reversibility, comparison of Table 2” value ([21]; D-tagatose and D-sorbitol at somewhat higher concentrations than D-galactose)?
A: markedly inferior

Q: What about the “effect on the coaggregating pairs tested” value ([21]; in contrast to D-tagatose) of the same molecule?
A: little or no effect
